Reference: patent publication US10125125B2, “N-(heteroaryl)-sulfonamide derivatives useful as S100-inhibitors” (Active Biotech AB, priority 2013, dated 2018)
Read-outs that look alike come from different tables or passages of the source.

Experiments:
[1] = target: biotinylated human S100A9 : rhRAGE-Fc interaction (Homo sapiens (Human), UniProt P06702); test: AlphaScreen inhibition assay, Biot-hS100A9:hRAGE-Fc (S100A9-RAGE inhibition assay); format: binding
Source text: FIG. 1 is a schematic representation of an assay of the inhibition of the interaction between biotinylated human S100A9 and human RAGE-Fc using a small molecule S100A9 binder.
Inhibition Assay, Biot-hS100A9:hRAGE-Fc
The AlphaScreen (Amplified Luminescent Proximity Homogeneous Assay) contains two types of beads, Alpha Donor beads and Acceptor beads (PerkinElmer). Upon laser excitation at 680 nm a photosensitizer in the Donor bead converts ambient oxygen to a more excited singlet state. The singlet oxygen molecule diffuses (maximum 200 nm) to react with a thioxene derivative in the Acceptor bead and generates a chemiluminescence reaction. Fluorophores in the Acceptor bead subsequently emit light at 520-620 nm which can be detected in the EnVision® Multilabel plate Reader (PerkinElmer). The beads are light sensitive and all work with the beads is performed under subdued light conditions or using green filters on light sources (Roscolux Chroma Green #389, Rosco).
In the AlphaScreen Inhibition Assay described here, protein A (Staphylococcus aureus) conjugated Acceptor beads are used together with streptavidin coated Donor beads (Perkin Elmer 6760617M). The Acceptor beads are pre-incubated with Fc-tagged recombinant human RAGE (rhRAGE-Fc) allowing binding of the rhRAGE-Fc to protein A on the beads. Biotinylated human S100A9 (biot-hS100A9) is pre-incubated with the low molecular test compounds. The pre-mixes are then added to the wells of a micro-plate and incubated allowing interaction between biot-hS100A9 and rhRAGE-Fc. Subsequent addition of streptavidin coated Donor beads causes binding of the streptavidin to the biotinylated hS100A9. After an additional incubation the signal is measured.
Without inhibitory compounds, the interaction of biot-hS100A9 to rhRAGE-Fc will bring the Acceptor and Donor beads in close proximity thus generating a high signal. With an inhibitor present the complex will not form resulting in a decreased signal.
Chemicals and reagents. • AlphaScreen® General IgG (Protein A) Detection Kit, (PerkinElmer 6760617M) • HBS-P buffer (GE Healthcare, BR-1003-68) • HBS-N buffer (GE Healthcare, BR-1003-69) • CaCl2 in HBS-P • ZnCl2 in Milli-Q water • DMSO • Biotinylated hS100A9, (biotinylated via cystein by EZ-link Iodoacetyl-PEG2-Biotin reagent (Pierce no. 21334), in HBS-N • rhRAGE-Fc (R&D Systems, 1145-RG-50), in HBS-P
The AlphaScreen assay method is used for screening of the inhibitory effect of different compound samples at fixed concentrations or for IC50 determination by varying the compound concentrations. Samples of test compounds and references are prepared from solutions in DMSO. Relevant reference inhibitors and DMSO are used as controls for defined inhibition and non-inhibition, respectively in the assay. The percent inhibition in assay for test compounds and references are calculated by comparing their obtained assay signals with the signal values for the control with only DMSO (no compound).
Assay concentration of biotinylated hS100A9 and rhRAGE-Fc are batch dependent, and are determined and defined by separate cross-titration experiments using this AlphaScreen inhibition method to verify the optimal setup regarding signal strength and achievement of a defined inhibition with relevant reference compounds. The Final assay concentrations of Acceptor and Donor beads are 20 μg/mL.
Experimental Set Up for Screening, Preparation of Solutions and Beads.
Assay buffer is prepared by adding CaCl2 and ZnCl2 to HBS-P and is used freshly prepared in the experiment.
Biotin-hS100A9 solution for the experiment is prepared by dilution of appropriate amount of stock solution biot-hS100A9 in assay buffer (with CaCl2 and ZnCl2) and incubation in room temperature for 30 minutes.
rhRAGE-Fc solution for the experiment is prepared by dilution appropriate amount of rhRAGE-Fc stock in assay buffer.
Protein A Acceptor beads are diluted in assay buffer and are added to an equal volume of the prepared diluted rhRAGE-Fc solution.

[2] = Prodrug assay: plasma concentrations of prodrugs and demethylated parents after cassette dosing, LC-MS; format: in vivo, C57 Bl/6 mice; conditions: C57 Bl/6, mouse, solution, read-out: Parent (demethylated compound) Conc. in plasma after prodrug dosing
Experimental: ABR-239313, 239470 and 239749 were administered to seven C57 Bl/6 mice as a cassette formulation either intravenously (4 animals, nominal 1 mg/kg) or per oral (3 animals, nominal 5 mg/kg).
Blood samples were collected at time points ranging from 5 minutes to 7 hours after administration. After sample withdrawal, plasma was directly separated and frozen until analysis.
The plasma as well as the formulation samples were analyzed with respect to the concentration of ABR-239313, 239470, 239749 and the corresponding demethylated compounds, i.e. Examples 9, 75 and 73 (ABR-239247, 239417 and 239167) by means of LC-MS.
The samples were precipitated with acidified acetonitrile and centrifuged prior to injection on LC-MS system (consisting of a triple quadrupole instrument operated in negative MRM ionization mode, and a fast-gradient reversed-phase LC on a Symmetry Shield RP18, 2×30 mm, 3.5 um column).
In Table 3 the concentrations of each analyte are presented.

[3] = intravenous, i.v. cassette of prodrugs, nominal 1 mg/kg
[4] = oral, p.o. cassette of prodrugs, nominal 5 mg/kg

Sequence of biotinylated human S100A9 : rhRAGE-Fc interaction (P06702 whole entry): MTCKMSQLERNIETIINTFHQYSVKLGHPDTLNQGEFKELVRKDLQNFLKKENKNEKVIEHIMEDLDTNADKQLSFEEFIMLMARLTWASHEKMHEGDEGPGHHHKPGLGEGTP

O=S(=O)(Cc1cc(Cl)cc(Cl)c1)Nc1ncc(Cl)cc1O [Example 9, N-(5-chloro-3-hydroxypyridin-2-yl)-1-(3,5-dichlorophenyl)methanesulfonamide]
IC50 [1]: 0.12 µM | concentration at 0.083 h [2, 3]: 0.044 µM | concentration at 0.5 h [2, 3]: 0.005 µM | concentration at 1 h [2, 3]: 0.003 µM | concentration at 2 h [2, 3]: 0.006 µM | concentration at 4 h [2, 3]: 0.004 µM | concentration at 7 h [2, 3]: 0.004 µM | concentration at 0.5 h [2, 4]: 0.045 µM | concentration at 1 h [2, 4]: 0.026 µM | concentration at 2 h [2, 4]: 0.021 µM | concentration at 4 h [2, 4]: 0.012 µM | concentration at 7 h [2, 4]: 0.019 µM

O=S(=O)(Nc1cnc(Cl)cc1O)c1cc(Cl)sc1Cl [Example 73, 2,5-dichloro-N-(6-chloro-4-hydroxypyridin-3-yl)thiophene-3-sulfonamide]
IC50 [1]: 1.2 µM | concentration at 0.083 h [2, 3]: 0.089 µM | concentration at 0.5 h [2, 3]: 0.2 µM | concentration at 1 h [2, 3]: 0.19 µM | concentration at 2 h [2, 3]: 0.21 µM | concentration at 4 h [2, 3]: 0.18 µM | concentration at 7 h [2, 3]: 0.13 µM | concentration at 0.5 h [2, 4]: 0.46 µM | concentration at 1 h [2, 4]: 0.49 µM | concentration at 2 h [2, 4]: 0.69 µM | concentration at 4 h [2, 4]: 0.61 µM | concentration at 7 h [2, 4]: 0.78 µM

O=S(=O)(Cc1ccc(Cl)c(Cl)c1)Nc1ncc(Br)nc1O [Example 75, N-(5-bromo-3-hydroxypyrazin-2-yl)-1-(3,4-dichlorophenyl)methanesulfonamide]
IC50 [1]: 0.25 µM | concentration at 0.083 h [2, 3]: 0.12 µM | concentration at 0.5 h [2, 3]: 0.32 µM | concentration at 1 h [2, 3]: 0.32 µM | concentration at 2 h [2, 3]: 0.32 µM | concentration at 4 h [2, 3]: 0.21 µM | concentration at 7 h [2, 3]: 0.2 µM | concentration at 0.5 h [2, 4]: 0.57 µM | concentration at 1 h [2, 4]: 0.86 µM | concentration at 2 h [2, 4]: 0.8 µM | concentration at 4 h [2, 4]: 0.63 µM | concentration at 7 h [2, 4]: 1.1 µM
